{"source": "patent US20240117405A1", "about": "“COLORIMETRIC BIOSENSOR, PREPARATION METHOD THEREOF, AND ANTIBIOTIC SUSCEPTIBILITY TESTING METHOD USING THE SAME” (INHA UNIVERSITY RESEARCH AND BUSINESS FOUNDATION, priority 2022, published 2024)", "tested_on": "methicillin-resistant Staphylococcus Aureus (MRSA)", "experiment": "Antibiotic susceptibility test using encapsulated colorimetric biosensor", "type": "cell-based", "settings": "MRSA 10^6 CFU/mL, 37° C.; for time until color change (blue->red) of the colorimetric biosensor: photographed up to 15 hours", "description": "An antibiotic susceptibility test was performed on the colorimetric biosensor in encapsulated form prepared in Example 1, and the results are shown in FIG. 5.\nSpecifically, an encapsulated colorimetric biosensor was prepared from Example 1 and introduced into wells containing 2 and 4 μg/mL of ampicillin antibiotics (See FIGS. 5B and 5C) and 0.25, 2 and 4 μg/mL of vancomycin antibiotics (See FIGS. 5D, 5E, and 5F). Further, for the antibiotic susceptibility test, methicillin-resistant Staphylococcus Aureus (MRSA) bacteria, which are resistant to ampicillin and susceptible to vancomycin, were injected into each well at an amount of 10^6 CFU/mL. For comparative experiments, wells containing only the colorimetric biosensor and bacteria (See FIG. 5A) and wells containing only the colorimetric biosensor (See FIG. 5G) were also prepared. In order to induce the growth of MRSA and the color change of the biosensor accordingly, they were cultured at a temperature of 37° C., and each well plate was photographed at 0, 5, 6, 7, 9, 12, 13 and 15 hours to compare the color change.", "data": [{"smiles": "CC1(C)S[C@@H]2[C@H](NC(=O)[C@H](N)c3ccccc3)C(=O)N2[C@H]1C(=O)O", "note": "[ampicillin]", "values": [{"measurement": "time until color change (blue->red) of the colorimetric biosensor", "setting": "2 μg/mL antibiotic", "value": 9, "unit": "h"}, {"measurement": "time until color change (blue->red) of the colorimetric biosensor", "setting": "4 μg/mL antibiotic", "value": 13, "unit": "h"}, {"measurement": "susceptibility or resistance of MRSA to the antibiotic as determined by biosensor color change", "value": "resistance"}]}, {"smiles": "CN[C@H](CC(C)C)C(=O)N[C@H]1C(=O)N[C@@H](CC(N)=O)C(=O)N[C@H]2C(=O)N[C@H]3C(=O)N[C@H](C(=O)N[C@H](C(=O)O)c4cc(O)cc(O)c4-c4cc3ccc4O)[C@H](O)c3ccc(c(Cl)c3)Oc3cc2cc(c3O[C@@H]2O[C@H](CO)[C@@H](O)[C@H](O)[C@H]2O[C@H]2C[C@](C)(N)[C@H](O)[C@H](C)O2)Oc2ccc(cc2Cl)[C@H]1O", "note": "[vancomycin]", "values": [{"measurement": "time until color change (blue->red) of the colorimetric biosensor", "setting": "0.25 μg/mL antibiotic", "value": 9, "unit": "h"}, {"measurement": "time until color change (blue->red) of the colorimetric biosensor", "setting": "2 μg/mL antibiotic", "value": "no color change was observed"}, {"measurement": "time until color change (blue->red) of the colorimetric biosensor", "setting": "4 μg/mL antibiotic", "value": "no color change was observed"}, {"measurement": "susceptibility or resistance of MRSA to the antibiotic as determined by biosensor color change", "value": "susceptibility"}, {"measurement": "concentration from which MRSA shows susceptibility (no color change)", "setting": "tested 0.25, 2 and 4 μg/mL", "value": 2, "unit": "µg/mL"}]}]}
